Results from patent US20050033056A1, “Hydroxylated indole derivatives and uses thereof” (priority 2001, published 2005).

Columns and labels:
[1] = target: T1, CYP2C9 (Homo sapiens, UniProt P11712); experiment: CYP inhibition in HLM: S-warfarin 7-hydroxylation; format: in vitro ADME; conditions: 10 or 50 μM
T1 construct: tissue Gentest Corp. (Woburn, Mass.); host or cells: pooled human liver microsomes
Protocol: The incubations were carried out in test tubes (12.0×75 mm). The incubation mixtures (250 μL) contained 0.5 mg of HLM protein, 50 (CYP1A2 and CYP2E1) or 25 (CYP2C9, CYP2C19, CYP2D6 and CYP3A4) pmol of recombinant human CYPs, Compound 1 (10 or 50 μM), probe substrate (R—, S-warfarin, chlorzoxazone, S-mephenyloin, or bufuralol) at different concentrations, and 0.5 mg of NADPH in 50 mM Tris buffer containing 15 mM MgCl2 (pH 7.4). Compound 1 was added to the reaction mixture 5 minutes prior to the addition of the probe substrate. […]
The quantification was based on the calibration curves, and the quality control (QC) samples were applied to ensure the quality of the experiments. […]
1. CYP1A2/2C9/3A4-mediated warfarin 6-, 7-, 8-, and 10-hydroxylation (Zhang et al., Drug Metab. Dispos. 23:1339-1346, 1995; Rettie et al., Chem. Res. Toxicol. 5:54-59, 1992; Brian et al., Biochemistry 29:11280-11292, 1990): Hewlett Packard 1100 HPLC system (Waldbronn, Germany) comprised a binary pump, an autosampler, a column compartment unit, a photodiode array detector (PDA), and a fluorescence detector. […] The warfarin metabolites, 6-, 8-, and 10-hydroxywarfarin, were monitored by UV at 313 nm, and 7-hydroxywarfarin by fluorescence at Ex320 nm/Em380 nm. […]

[2] = system: CYP1A1/2; experiment: CYP induction in primary human hepatocytes, Western immunoblotting: CYP1A1/2; format: cell-based; conditions: 10 or 50 μM for 72 hours; hepatocytes from three donors
Protocol: Upon receiving a primary culture of human hepatocytes in 6-well plates, the culture medium containing streptomycin/penicillin was refreshed (2 ml/well). […] Compound 1 stock solution was added to the culture medium at a 1:400 ratio (v/v). The culture medium and testing compounds were replenished every 24 hours.
At the end of the treatment, the cells were harvested into 1 mL of phosphate-buffered saline (PBS) after washing twice. The cells were precipitated by centrifugation, and were resuspended in PBS (approximately 50 μL). The sample preparation, after mixing with […] of Laemmli buffer (62.5 mM Tris-HCl containing 2% SDS, 25% glycerol, and 0.01% bromophenol, pH 6.8) and being rocked for 2-4 hours, was mixed with 10 μL of 2-mercaptoethanol, and heated at 90° C. for 10 minutes before electrophoresis.
Proteins were resolved in a 12% SDS-PAGE gel using a mini gel apparatus at a constant voltage ([…]) for 70-80 minutes, and transferred onto a polyvinylidene difluoride (PVDF) membrane using a membrane-transferring unit at a constant voltage ([…]) for 60 minutes. The membrane was blocked by 5% non-fat dried milk (NFDM) blotting buffer (PBS containing 0.05% Tween 20) at 4° C. overnight. […] CYP proteins were detected by […] using an X-ray developer.

T1 sequence (P11712 whole entry): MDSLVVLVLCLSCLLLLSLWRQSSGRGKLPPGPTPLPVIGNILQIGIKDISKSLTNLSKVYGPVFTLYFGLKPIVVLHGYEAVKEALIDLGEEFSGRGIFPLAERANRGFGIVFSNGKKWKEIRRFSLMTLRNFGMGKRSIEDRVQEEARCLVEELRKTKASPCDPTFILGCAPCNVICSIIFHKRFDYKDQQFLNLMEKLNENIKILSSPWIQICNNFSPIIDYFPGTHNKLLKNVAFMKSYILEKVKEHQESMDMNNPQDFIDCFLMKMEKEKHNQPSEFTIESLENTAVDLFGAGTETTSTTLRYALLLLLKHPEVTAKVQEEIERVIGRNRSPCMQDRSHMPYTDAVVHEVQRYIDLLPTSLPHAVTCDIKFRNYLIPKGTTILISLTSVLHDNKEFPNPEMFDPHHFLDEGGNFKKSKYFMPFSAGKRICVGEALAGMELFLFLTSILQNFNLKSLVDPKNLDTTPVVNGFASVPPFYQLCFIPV

CNC(=O)Cc1ccc2ccn(C3CCN(CCc4ccccc4F)CC3)c2c1 [Compound 1, N-methyl-[1-[1-(2-fluorophenethyl)piperidine-4-yl]-1H-indol-6-yl] acetamide]
inhibitory effect on CYP2C9 activity (in words) [1]: no inhibitory effect
expression of CYP1A1/2 (Western immunoblotting) [2]: did not increase
